The test system of assay [1] is Leukotriene A-4 hydrolase (Sus scrofa). The assay is described as follows: Tested for Percentage inhibition of LTA4 hydrolase at 2*10e-5M concentration in porcine leukocyte homogenates.
In assay [2] the test system is Leukotriene B4 receptor 1 (Cavia porcellus). The assay is described as follows: Percent inhibition of [3H]-LTB4 binding to guinea pig spleen Leukotriene B4 receptor at the concentration of 10e-5 M.
In assay [3] the test system is Leukotriene A-4 hydrolase (Sus scrofa). The assay is described as follows: Tested for 50% inhibition of LTA4 hydrolase at 2*10e-5M concentration in porcine leukocyte homogenates.
Assay [4] is described as follows: compound was tested for 50% inhibition of LTA4 hydrolase at 2*10e-5M concentration in porcine leukocyte homogenates. Format: tissue-based, Sus scrofa.

25 compounds from ChEMBL document CHEMBL1126193, “Omega-[(omega-arylalkyl)thienyl]alkanoic acids: from specific LTA4 hydrolase inhibitors to LTB4 receptor antagonists” (J Med Chem, 1992) can be followed below.

On to `O=C(O)CCCCCCc1sc(-c2ccccc2)cc1CCCc1ccccc1`, for which the inhibition in assay [1] amounted to 0%. With `O=C(O)CCCCc1cc(CCCc2ccccc2)cs1`, the inhibition is 35% in assay [2] and 0% in assay [3].

Take `O=C(O)CCCCCCc1cc(CCCCCc2ccccc2)cs1`: the inhibition stood at 31% in assay [2] and 49% in assay [3]. In assay [1], `Cc1cc(CCCCCCC(=O)O)c(CCCc2ccccc2)s1` yielded an inhibition of 0%. The same measure, in the same setting: then `COc1ccc(CCCc2cc(CCCCCCC(=O)O)cs2)cc1`, with 68%. With `O=C(O)CCCCCCc1ccc(CCCc2ccccc2)s1`, the concentration for half-maximal inhibition (IC50) in assay [4] was 2900 nM. This compound gave an inhibition in assay [3] of 84%.

Take `O=C(O)CCCCCCc1cc(CCCc2ccccc2)cs1`: the inhibition worked out at 38% in assay [2] and 42% in assay [3]. Take `O=C(O)CCCCCc1cc(CCCc2ccccc2)cs1`: the inhibition in assay [2] was found to be 36%; in assay [3], 32%. With `O=C(O)CCCCCCc1sccc1CCCCCc1ccccc1`, the inhibition in assay [2] worked out at 39%; in assay [3] it was 9%. The compound `O=C(O)CCCCCCc1ccsc1CCCc1ccccc1` showed an inhibition in assay [3] of 0%.

The compound `O=C(O)CCCCCCc1ccsc1C(=O)CCc1ccccc1` returned an inhibition in assay [2] of 17%.

In assay [4], `O=C(O)CCCCCCc1csc(CCCc2ccccc2)c1` had an IC50 of 1500 nM. Moreover, the inhibition in assay [2] came to 10%; in assay [3] it was 100%.

`O=C(O)CCCCCCc1sccc1CCCc1ccccc1` came in with an inhibition in assay [3] of 0%. For the compound `O=C(O)CCCCCCc1cc(Cc2ccccc2)cs1`, half-maximal inhibition in assay [4] (IC50) required 9600 nM. Besides, the inhibition in assay [2] stood at 33%; in assay [3], 70%. In assay [1], `O=C(O)CCCCCCc1csc(CCCc2ccc(O)cc2)c1` yielded an inhibition of 100%. The compound `O=C(O)CCCCCCc1csc(Cc2ccccc2)c1` registered an inhibition in assay [3] of 68%. Take `O=C(O)CCCCCCc1cc(-c2ccccc2)cs1`: the inhibition in assay [2] turned out to be 0%; in assay [3], 25%. In turn, `O=C(O)CCCCCCc1csc(CCc2ccccc2)c1` came in with an inhibition in assay [3] of 49%. Compound `O=C(O)CCCCCCc1ccsc1CCCc1ccc(Cl)cc1` returned an inhibition in assay [1] of 24%. For `O=C(O)CCCCc1sccc1CCCc1ccccc1`, the inhibition in assay [3] was 0%. Turning to `Cc1cc(C(=O)CCCCCC(=O)O)c(CCCc2ccccc2)s1`, the inhibition in assay [2] is 51%. With `O=C(O)CCCCCCc1csc(CCCc2ccc(Cl)cc2)c1`, the inhibition in assay [1] was found to be 73%.

On to `O=C(O)CCCCCCc1sccc1Cc1ccccc1`, for which the inhibition stood at 15% in assay [2] and 0% in assay [3].

For the compound `O=C(O)CCCCCCc1ccsc1CCc1ccccc1`, the inhibition in assay [2] was 38%; in assay [3] it was 0%. On to `O=C(O)CCCCCC(=O)c1sccc1CCCc1ccccc1`, for which the inhibition in assay [2] is 59%.

As usually defined, the inhibition is the drop in the measured response relative to a control, in per cent. The low end stands for a weak effect, the high end for a strong effect. Usually IC50 stands for the concentration at which inhibition is half-maximal.
